Data taken from US9404933B2, “Methods for determining patient response to anti-platelet aggregation therapy” (INVITROX, INC., priority 2011, dated 2016).
Read-outs that look alike come from different tables or passages of the source.

What was measured:
[1] = tested on: ADP-induced platelet aggregation; conditions: cited from earlier work; for inhibition of platelet aggregation: patients with ischaemic heart disease, measured at 4 min after addition of 10 μM ADP
human platelets = experiment: Focused light scattering size distribution of platelets and microparticles after activation; assay type: cell-based; conditions: normal resting human platelets versus activated; FIG. 8 / FIG. 9
Excerpt: FIG. 8 is a chart showing the result of the activation of platelets using thrombin receptor activating peptide (TRAP), where platelets are enlarged when activated, and also give off microparticles (MPs).
FIG. 9 is a chart showing the result of the activation of platelets using a calcium ionophore, which destroys platelets, and also causes the platelets to give off microparticles (MPs). Treated and untreated platelet size distributions are shown. What is observed is as the number of platelets decreases, the number of MPs increases.
The ionophore basically destroys the platelet to produce many more MPs. Treated and untreated platelet size distributions are shown. What is observed is as the number of platelets decreases, the number of MPs increases.

[2] = in vivo; cited from earlier work
[3] = tested on: P2Y12-dependent platelet function; conditions: added in vitro to blood from clopidogrel treated patients; cited from earlier work

COC(=O)[C@H](c1ccccc1Cl)N1CCc2sccc2C1 [Plavix, clopidogrel bisulfate]
delayed onset of action ([1]; loading dose of 300-600 mg): two to five | inhibition of platelet aggregation ([1]; 4 to 7 days treatment): approximately 60%

CC(=O)Oc1cc2c(s1)CCN(C(C(=O)C1CC1)c1ccccc1F)C2 (stereo not drawn) [Prasugrel, 2-acetoxy-5-[alpha-cyclopropylcarbonyl-2-fluorobenzyl]-4,5,6,7-tetrahydrothieno[3,2-c]pyridine]
inhibition of ADP-induced platelet aggregation ([1]; cross-over study, 60 mg loading dose, also in subjects who responded poorly to a standard loading dose of Clopidogrel): rapid and highgrade, irreversible inhibition

CNc1ccc2oc(C[C@H]3O[C@@]4(CC[C@H]3C)O[C@H]([C@H](C)C(=O)c3ccc[nH]3)[C@H](C)C[C@H]4C)nc2c1C(=O)O [calcium ionophore]
microparticles (MPs) formed on activation of platelets (human platelets): many more MPs

CSCCNc1nc(SCCC(F)(F)F)nc2c1ncn2[C@@H]1O[C@H](COP(=O)(O)OP(=O)(O)C(Cl)(Cl)P(=O)(O)O)[C@@H](O)[C@H]1O [cangrelor]
half-life [2]: 2.6 min | inhibition of platelet aggregation ([1]; infusion at 2 and 4 μg/mL/min): near complete inhibition | inhibition of P2Y12-dependent platelet function [3]: near complete inhibition
